From patent US10959428B2, “Hematophagous arthropod repellent composition” (WOOJUNG BIO INC., priority 2017, dated 2021)

What was measured:
adult Aedes albopicus = experiment: cage-in-arm test, repellency and CPT; assay type: in vivo, Aedes albopictus; conditions: 4 mg, adult Aedes albopicus
Description: (§1) For determining the repellency of prepared samples against adults of Aedes aegypti and Aedes albopicus, a cage-in-arm test was carried out as a method for exposure to skin. Namely, on a back of the hand of a rubber glove, a hole with diameter of 5 cm was created, and, onto an exposed back of the testees, various samples prepared by dissolution in 100 μl of ethanol were applied, and then the skin test was carried out. The testees were healthy males between the ages of 21 and 40. The control group was treated with 100 μl of ethanol only. Female adults (5 to 8 day old) of Aedes aegypti or Aedes albopicus (250 to 300 mosquitoes) were added to a cage for growing adult mosquitoes (25×25×25 cm^3), and adapted to the indoor conditions for 12 to 24 hours before starting the test. When the upper arm of the control group is exposed for 1 minute and at least 6 mosquitoes sit on the upper arm or show a bloodsucking behavior, it was determined as sufficient biting pressure, and then the repellency test was carried out. With an interval of 30 minutes, by exposing the upper arm, which has been treated with the above composition, for 3 minutes, and, when the adult mosquito sits on the arm for 2 seconds or longer or at least two mosquitoes showing the behavior of mouth injection to skin or direct bloodsucking are found from consecutive tests, the test was stopped. The time period between the time point with initial treatment of a material and the time point at which 2 or more mosquitoes continuously sit on the treatment area or show the bloodsucking behavior was defined as complete protection time (CPT). Furthermore, for obtaining the repellency with regard to concentration, exposure was made for a constant time period regardless of the above and the repellency was calculated by using the following formula. Accordingly, the effect was compared among each test samples. All tests were carried out in triplicate. Repellency %=(Number of insects showing bloodsucking behavior in non-treatment group−Number of insects showing bloodsucking behavior in treatment group)/Number of insects showing bloodsucking behavior in non-treatment group)×100 <Tick Repellency>
For reference, comparison of the mosquito repellency was made by using clove oil as a natural positive control group and DEET as a synthetic positive control group.
To determine the repellency of plant essential oil alone against adult Aedes albopicus and nymphs of Haemaphysalis longicornis, the cage-in-arm test and finger-tip method were carried out, in the same manner as Examples 1-2 and 1-3, with each of 16 kinds of plant essential oil of Table 4.

adult Aedes aegypti = experiment: cage-in-arm test, complete protection time (CPT); assay type: in vivo; conditions: 4 mg, adult Aedes aegypti
Description: as §1, with “With an interval of 30 minutes, by exposing the upper arm, which has been treated with the above composition, for 3 minutes, and, when the adult mosquito sits on the arm for 2 seconds or longer or at least two mosquitoes showing the behavior of mouth injection to skin or direct bloodsucking are found from consecutive tests, the test was stopped.” left out

Compound	CPT (adult Aedes albopicus) [min]	CPT (adult Aedes aegypti) [min]
C=CCc1ccc(O)c(OC)c1 [Eugenol (clove), Eugenol]	10	
vanillin isobutyrate		45
COc1cc(CCC(C)=O)ccc1O [Vanillyl acetone, vanillyl acetone]		10
COc1cc(C=O)ccc1OC(=O)OC(C)(C)C [tert-butyl 4-formyl-2-methoxyphenyl carbonate]		10
COc1cc(CN)ccc1O.Cl [4-hydroxy-3-methoxybenzylamine hydrochloride]		10
